{"source": "patent US11491245B2", "about": "“Gadolinium chelate compounds for use in magnetic resonance imaging” (BAYER PHARMA AKTIENGESELLSCHAFT, priority 2015, dated 2022)", "key": {"[1]": {"test": "Contrast-enhanced magnetic resonance angiography (CE-MRA)", "assay_type": "in vivo, male New Zealand white rabbits", "conditions": "rabbits", "method": "Reference compound 1 (Gadovist®), as an approved representative of the Gadolinium-based MRI contrast agents, was used in both dose protocols (100 μmol Gd/kg bw and 30 μmol Gd/kg bw) and compared to Example 3 (30 μmol Gd/kg bw).\nThe contrast-enhanced magnetic resonance angiography study was performed at a clinical 1.5 T Scanner (Magnetom Avanto, Siemens Healthcare, Erlangen, Germany). For optimal signal exploitation, a standard spine coil was used for the data acquisition. The study was done using male New Zealand white rabbits (weight 2.5-2.9 kg, n=6, Charles River Kisslegg). All animals were initially anesthetized using a body weight-adjusted intramuscular injection of a mixture (1+2) of xylazine hydrochloride (20 mg/mL, Rompun 2%, Bayer Vital GmbH, Leverkusen, Germany) and ketamine hydrochloride (100 mg/mL, Ketavet, Pfizer, Pharmacia GmbH, Berlin, Germany) using 1 mL/kg body weight. […]\nBased on a localizer sequence oriented in coronal, axial, and sagittal directions, the anatomic course of the aorta was acquired. The time to peak was determined using a small intravenous test bolus (0.25 mL/2.5-2.7 kg or 0.3 mL/2.8-2.9 kg bw, Reference compound 1) and a 3D FLASH sequence (test bolus sequence: repetition time: 36.4 millisecond, echo time 1.45 millisecond, flip angle: 30 degree, spatial resolution: 1.0×0.8×17 mm). […]"}, "[2]": {"test": "Excretion and residual organ gadolinium concentration", "assay_type": "in vivo, male rats (Han-Wistar)", "conditions": "male rats, 0.1 mmol Gd/kg i.v.", "method": "The excretion and organ distribution of Example 3 were determined in male rats (Han-Wistar, 100-110 g, n=3). The compound was administered as a sterile aqueous solution (54 mmol Gd/L) as a bolus in the tail vein of the animals. The dose was 0.1 mmol Gd/kg. Urine was collected in the following time periods 0-1 h, 1-3 h, 3-6 h, 6-24 h, 1-2 d and 2-5 d post injection and feces 0-1 d, 1-2 d and 2-5 d post injection. As a control, 3 animals were treated in the same way with Gadovist®, a low molecular weight contrast agent. On day 7 the animals were sacrificed and the following organs were excised: blood, liver, kidney, spleen, heart, lung, brain, mesenteric lymph nodes, muscle, skin, stomach, gut, bone and bone marrow. The remaining carcass was freeze dried and ground to a fine powder. The Gd concentration in the organs and the carcass was determined by ICP-MS (ICP-MS Agilent 7500a, Waldbronn, Germany). The Example 3 is excreted quickly via the kidneys. After 3 h 95.8%±3.4% of the injected dose was found in urine and 96.9%±3.7% after 5 days. About 1.4%±0.6% was excreted via the feces. Less than 0.5% of the administered dose was present in the body 7 days after the injection. The individual organs contained less than 0.03% of the injected dose, except the kidney which is the excretion organ."}}}
{"smiles": "CC(C(=O)NCC(=O)NCC(CNC(=O)CNC(=O)C(C)N1CCN(CC(=O)[O-])CCN(CC(=O)[O-])CCN(CC(=O)[O-])CC1)(CNC(=O)CNC(=O)C(C)N1CCN(CC(=O)[O-])CCN(CC(=O)[O-])CCN(CC(=O)[O-])CC1)CNC(=O)CNC(=O)C(C)N1CCN(CC(=O)[O-])CCN(CC(=O)[O-])CCN(CC(=O)[O-])CC1)N1CCN(CC(=O)[O-])CCN(CC(=O)[O-])CCN(CC(=O)[O-])CC1.[Gd+3].[Gd+3].[Gd+3].[Gd+3]", "note": "(stereo not drawn) [Example 3, Tetragadolinium [4,10-bis(carboxylatomethyl)-7-{3,6,12,15-tetraoxo-16-[4,7,10-tris-(carboxylatomethyl)-1,4,7,10-tetraazacyclododecan-1-yl]-9,9-bis({[({2-[4,7,10-tris-(carboxylatomethyl)-1,4,7,10-tetraazacyclododecan-1-yl]propanoyl}amino)acetyl]-amino}methyl)-4,7,11,14-tetraazaheptadecan-2-yl}-1,4,7,10-tetraazacyclododecan-1-yl]acetate]", "values": [{"measurement": "image quality of the low dose protocol", "setting": "[1]; 30 μmol Gd/kg bw vs 30 μmol Gd/kg bw Reference compound 1, 1.5 T", "value": "significantly better than the low dose protocol of Reference compound 1"}, {"measurement": "contrast enhancement of the low dose protocol", "setting": "[1]; 30 μmol Gd/kg bw vs 100 μmol Gd/kg bw Reference compound 1, 1.5 T", "value": "comparable to that of the standard dose of Reference compound 1"}, {"measurement": "Feces excretion 0-1 d post injection", "setting": "[2]", "value": "1.13 ± 0.62", "unit": "% Dose"}, {"measurement": "Feces excretion 1-2 d post injection", "setting": "[2]", "value": "0.10 ± 0.02", "unit": "% Dose"}, {"measurement": "Feces excretion 2-5 d post injection", "setting": "[2]", "value": "0.13 ± 0.01", "unit": "% Dose"}, {"measurement": "Total recovery", "setting": "[2]", "value": "98.8 ± 3.1", "unit": "% Dose"}, {"measurement": "Urine excretion 0-1 h post injection", "setting": "[2]", "value": "90.36 ± 4.4", "unit": "% Dose"}, {"measurement": "Urine excretion 1-3 h post injection", "setting": "[2]", "value": "5.43 ± 1.04", "unit": "% Dose"}, {"measurement": "Urine excretion 1-2 d post injection", "setting": "[2]", "value": "0.14 ± 0.01", "unit": "% Dose"}, {"measurement": "Urine excretion 2-5 d post injection", "setting": "[2]", "value": "0.34 ± 0.03", "unit": "% Dose"}, {"measurement": "Urine excretion 3-6 h post injection", "setting": "[2]", "value": "0.46 ± 0.38", "unit": "% Dose"}, {"measurement": "Urine excretion 6-24 h post injection", "setting": "[2]", "value": "0.17 ± 0.02", "unit": "% Dose"}, {"measurement": "administered dose present in the body 7 days after the injection", "setting": "[2]", "value": "Less than 0.5%"}, {"measurement": "excreted via the feces", "setting": "[2]", "value": "About 1.4%"}, {"measurement": "Σ organs and carcass 7 d post injection", "setting": "[2]", "value": "0.49 ± 0.01", "unit": "% Dose"}, {"measurement": "injected dose in the individual organs (except the kidney)", "setting": "[2]; 7 days", "value": "less than 0.03%"}, {"measurement": "injected dose found in urine after 3 h", "setting": "[2]; cumulative", "value": 95.8, "unit": "%"}, {"measurement": "injected dose found in urine after 5 days", "setting": "[2]; cumulative", "value": 96.9, "unit": "%"}]}
